According to US9568449B2, “Dielectric spectroscopy methods and apparatus” (Bend Research, Inc., priority 2012, dated 2017):

What was measured:
[1] = tested on: first population of cells; assay: Viability of a cell population after apoptosis induction with staurosporine; type: cell-based; details: 1 μM staurosporine added at day 14 of cell growth; compared with untreated control population; FIG. 19B
Procedure: FIG. 19A is a chart 1900 that illustrates the viability of cells (along the y-axis) in two different cell populations over a period of time (along the x-axis) in an example experiment corresponding to the method of FIG. 18. As shown, a first line 1910 indicates the viability of a first population of cells, which has apoptosis induced using addition of a staurosporine agent. In this case, a 1 μM concentration of staurosporine was used. A second line 1915 indicates the viability of a second population of cells, which is a control population that is not induced using a staurosporine agent.
At a designated time period, apoptosis is induced in the first population of cells by adding an apoptosis inducing agent to the environment.
FIG. 19B is a chart 1930 that illustrates viable cell density (VCD) (left y-axis) and cell viability percentage (right y-axis) plotted over time (x-axis) for the first and second measurements of the first and second populations of cells received at process block 1810 and 1820.

[2] = tested on: first population of cells; assay: Dielectric spectroscopy (normalized capacitance versus frequency) of an apoptosis-induced cell population; type: cell-based; details: from time of staurosporine addition (day 14) to 60 hours after addition; compared with slight drift in control; FIG. 19D
Source text: At process block 1810, data representing a number of measurements of an electrical property of a first population of cells are received. The measurements can be obtained by applying a frequency-varying signal (e.g., a sine wave having a frequency that is varied across a selected frequency range, or at two or more selected frequencies) to the population of cells while measuring an electrical property such as permittivity or capacitance. A number of selected frequencies can be used, for example, frequencies between 50 kHz and 10 MHz. The measured permittivity of the population of cells will vary depending on the frequency of the applied signal used to measure permittivity. For example, the permittivity can range from a high measurement of 4×10^−9 Farads per meter (F/m) at a low frequency of 50 kHz to a low measurement of 1×10^−11 F/m at a high frequency of 10 MHz. […] The cells can be mammalian cells (e.g. from the CHO or NS0 cell lines) suspended in a nutrient solution.
At process block 1830, the first set of measurements for the first population of cells and the second set of measurements for the second population of cells are compared.
The chart 1950 of FIG. 19D illustrates the first set of measurements obtained from the first population of cells that has an apoptosis-inducing agent added at day 14 of cell growth.

## CN[C@@H]1C[C@H]2O[C@@](C)([C@@H]1OC)n1c3ccccc3c3c4c(c5c6ccccc6n2c5c31)C(=O)NC4 [staurosporine]
[1]
  cell viability percentage: declining
  viable cell density (VCD): declining
[2]
  shift of normalized capacitance versus frequency curve: more substantial drift to the right
